Source: patent US20060247250A1 (TargeGen, Inc., priority 2005, published 2006)

Biological target: T1, human c-Src (Homo sapiens, UniProt P12931)
T1 construct: purchased Panvera/Invitrogen
Assay: Src kinase inhibition, luciferase-based residual ATP (KinaseGlo)
Assay type: biochemical
Settings: recombinant human c-Src, ATP 3 μM, PTK2 substrate, 90 minutes at room temperature
Experimental: The ability of compounds of the present invention to inhibit the activity of three groups of kinases was tested. Kinases tested included the src family (primarily src and yes), the angiogenic growth factors receptors (FGFR1, PDGFRb and VEGFR2) and the ephrin, EphB4. All kinase reactions were conducted in 96-well plates with a final reaction volume of 50 ul.
Recombinant human c-Src or Yes (28 ng/well, Panvera/Invitrogen, Madison Wis.), ATP (3 μM), a tyrosine kinase substrate (PTK2, 250 μM, Promega Corp., Madison Wis.), and test agents (at concentrations ranging from about 1 nM/l to about 100 μM/1), in the presence of Src kinase reaction buffer (Upstate USA, Lake Placid N.Y.). After reacting for about 90 minutes at room temperature, residual ATP was determined using a luciferase-based assay (KinaseGlo, Promega Corp.) as a measure of kinase activity. Data from four wells were then averaged and used to determine IC50 values for the test compounds (Prism software package, GraphPad Software, San Diego Calif.).

T1 sequence (P12931 whole entry): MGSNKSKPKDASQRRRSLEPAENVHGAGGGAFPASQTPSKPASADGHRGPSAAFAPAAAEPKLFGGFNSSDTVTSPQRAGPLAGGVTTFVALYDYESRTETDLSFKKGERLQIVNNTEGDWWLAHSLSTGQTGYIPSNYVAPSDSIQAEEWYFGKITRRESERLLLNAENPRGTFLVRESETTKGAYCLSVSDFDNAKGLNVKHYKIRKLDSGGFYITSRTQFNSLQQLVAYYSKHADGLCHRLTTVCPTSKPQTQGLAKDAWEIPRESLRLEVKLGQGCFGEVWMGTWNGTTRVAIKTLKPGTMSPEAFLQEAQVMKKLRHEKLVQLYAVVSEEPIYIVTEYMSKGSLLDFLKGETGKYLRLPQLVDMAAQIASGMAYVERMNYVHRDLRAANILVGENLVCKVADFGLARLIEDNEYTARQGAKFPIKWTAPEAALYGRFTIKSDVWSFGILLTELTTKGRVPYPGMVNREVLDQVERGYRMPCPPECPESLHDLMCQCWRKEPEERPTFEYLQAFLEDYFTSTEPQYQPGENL

IC50 [nM] | Compound
85 | O=C(NCCN1CCCC1)c1ccc(Nc2ncc(NC(=O)c3ccc(O)cc3Cl)cn2)cc1
8000 | COc1ccc(Cl)c(C(=O)Nc2cnc(Nc3ccc(S(=O)(=O)CCCN4CCCC4)cc3)nc2)c1 [Compound 53, 2-Chloro-5-methoxy-N-{2-[4-(3-pyrrolidin-1-yl-propane-1-sulfonyl)-phenylamino]-pyrimidin-5-yl}-benzamide]
288 | Cc1cccc(C)c1C(=O)Nc1cnc(Nc2cccc(S(=O)(=O)NCCN(C)C)c2)nc1 [I, N-{2-[3-(2-Dimethylamino-ethylsulfamoyl)-phenylamino]-Pyrimidin-5-yl}-2,6-dimethyl-benzamide]
400 | O=C(Nc1cnc(Nc2ccc(C(=O)N3CCN(CCO)CC3)nc2)nc1)c1c(Cl)cccc1Cl [II, 2,6-Dichloro-N-(2-{6-[4-(2-hydroxy-ethyl)-piperazine-1-carbonyl]-pyridin-3-ylamino}-pyrimidin-5-yl)-benzamide]
73 | O=C(Nc1cnc(Nc2ccc(S(=O)(=O)NCCN3CCCC3)cc2)nc1)c1c(Cl)cccc1Cl [III, 2,6-Dichloro-N-{2-[4-(2-pyrrolidin-1-yl-ethylsulfamoyl)-phenylamino]-pyrimidin-5-yl}-benzamide]
2100 | CN(CCN1CCCC1)S(=O)(=O)c1ccc(Nc2ncc(NC(=O)c3c(Cl)cccc3Cl)cn2)cc1 [IV, 2,6-Dichloro-N-(2-[4-[methyl-(2-pyrrolidin-1-yl-ethyl)-sulfamoyl]-phenylamino]-pyrimidin-5-yl)-benzamide]
13 | O=C(NCCN1CCCC1)c1ccc(Nc2ncc(NC(=O)c3cc(O)ccc3Cl)cn2)cn1 [IX, 5-[5-(2-Chloro-5-hydroxy-benzoylamino)-pyrimidin-2-ylamino]-Pyridine-2-carboxylic acid (2-pyrrolidin-1-yl-ethyl)-amide]
183 | Cc1cccc(C)c1C(=O)Nc1cnc(Nc2ccc(C(=O)N3CCNCC3)cc2)nc1 [L, 2,6-Dimethyl-N-{2-[4-(piperazine-1-carbonyl)-phenylamino]-pyrimidin-5-yl}-benzamide]
12 | O=C(Nc1cnc(Nc2ccc(C(=O)N3CCNCC3)cc2)nc1)c1cc(O)ccc1Cl [LI, 2-Chloro-5-hydroxy-N-{2-[4-(piperazine-1-carbonyl)-phenylamino]-Pyrimidin-5-yl}-benzamide]
60 | Clc1cccc(Cl)c1CNc1cnc(Nc2cccc(OCCN3CCCC3)c2)nc1 [LII, N′-(2,6-Dichloro-benzyl)-N-[3-(2-pyrrolidin-1-yl-ethoxy)-phenyl]-pyrimidine-2,5-diamine]
3000 | Cc1nc(Nc2ncc(NC(=O)c3c(Cl)cccc3Cl)cn2)cc(N2CCN(CCO)CC2)n1 [LIII, 2,6-Dichloro-N-(2-{6-[4-(2-hydroxy-ethyl)-piperazin-1-yl]-2-methyl-pyrimidin-4-ylamino}-pyrimidin-5-yl)-benzamide]
667 | CN1CCN(S(=O)(=O)c2ccc(Nc3ncc(NC(=O)c4c(Cl)cccc4Cl)cn3)cc2)CC1 [V, 2,6-Dichloro-N-{2-[4-(4-methyl-piperazine-1-sulfonyl)-phenylamino]-pyrimidin-5-yl}-benzamide]
90 | Cc1cccc(C)c1C(=O)Nc1cnc(Nc2ccc(S(=O)(=O)NCCN3CCCC3)cc2)nc1 [VI, 2,6-Dimethyl-N-{2-[4-(2-pyrrolidin-1-yl-ethylsulfamoyl)-phenylamino]-pyrimidin-5-yl}-benzamide]
13 | O=C(Nc1cnc(Nc2ccc(S(=O)(=O)NCCN3CCCC3)cc2)nc1)c1cc(O)ccc1Cl [VII, 2-Chloro-5-hydroxy-N-{2-[4-(2-pyrrolidin-1-yl-ethylsulfamoyl)-phenylamino]-pyrimidin-5-yl}-benzamide]
129 | O=C(NCCN1CCCC1)c1ccc(Nc2ncc(NC(=O)c3c(Cl)cccc3Cl)cn2)cn1 [VIII, 5-[5-(2,6-Dichloro-benzoylamino)-pyrimidin-2-ylamino]-pyridine-2-carboxylic acid (2-pyrrolidin-1-yl-ethyl)-amide]
300 | O=C(Nc1cnc(Nc2cccnc2)nc1)c1c(Cl)cccc1Cl [X, 2,6-Dichloro-N-[2-(pyridin-3-ylamino)-pyrimidin-5-yl]-benzamide]
43 | O=C(Nc1cnc(Nc2cccnc2)nc1)c1cc(O)ccc1Cl [XI, Chloro-5-hydroxy-N-[2-(pyridin-3-ylamino)-pyrimidin-5-yl]-benzamide]
94 | CN1CCN(C(=O)c2ccc(Nc3ncc(NC(=O)c4c(Cl)cccc4Cl)cn3)cc2)CC1 [XIV, 2,6-Dichloro-N-{2-[4-(4-methyl-piperazine-1-carbonyl)-phenylamino]-pyrimidin-5-yl}-benzamide]

IC50 [nM] | Compound
25 | CC(C)N(CCO)C(=O)c1cccc(Nc2ncc(NC(=O)c3c(Cl)cccc3Cl)cn2)c1 [XIX, 2,6-Dichloro-N-(2-{3-[(2-hydroxy-ethyl)-isopropyl-carbamoyl]-phenylamino}-pyrimidin-5-yl)-benzamide]
55 | Oc1ccc(Cl)c(CNc2cnc(Nc3ccc(OCCN4CCCC4)cc3)nc2)c1 [XLI, 3-((2-(4-(2-(Pyrrolidin-1-yl)ethoxy)phenylamino)pyrimidin-5-ylamino)methyl)-4-chlorophenol]
21 | O=C(Nc1cnc(Nc2cccc(OCCN3CCCC3)c2)nc1)c1cc(O)ccc1Cl [XLII, N-(2-(3-(2-(Pyrrolidin-1-yl)ethoxy)phenylamino)pyrimidin-5-yl)-2-chloro-5-hydroxybenzamide]
99 | Cc1cccc(C)c1C(=O)Nc1cnc(Nc2cccc(OCCN3CCCC3)c2)nc1 [XLIII, N-(2-(3-(2-(Pyrrolidin-1-yl)ethoxy)phenylamino)pyrimidin-5-yl)-2,6-dimethylbenzamide]
25 | O=C(Nc1cnc(Nc2cccc(OCCN3CCCC3)c2)nc1)c1c(Cl)cccc1Cl [XLIV, N-(2-(3-(2-(Pyrrolidin-1-yl)ethoxy)phenylamino)pyrimidin-5-yl)-2,6-dichlorobenzamide]
54 | O=C(Nc1cnc(Nc2ccc(N3CCN(CCO)CC3)nc2)nc1)c1c(Cl)cccc1Cl [XLIX, 2,6-Dichloro-N-(2-{6-[4-(2-hydroxy-ethyl)-piperazin-1-yl]-pyridin-3-ylamino}-pyrimidin-5-yl)-benzamide]
38 | O=C(Nc1cnc(Nc2ccc(S(=O)(=O)N3CCNCC3)cc2)nc1)c1cc(O)ccc1Cl [XLVII, 2-Chloro-5-hydroxy-N-{2-[4-(piperazine-1-sulfonyl)-phenylamino]-Pyrimidin-5-yl}-benzamide]
53 | O=C(Nc1cnc(Nc2ccc(C(=O)N3CCN(CCO)CC3)nc2)nc1)c1cc(O)ccc1Cl [XLVIII, 2-Chloro-5-hydroxy-N-(2-{6-[4-(2-hydroxy-ethyl)-piperazine-1-carbonyl]-pyridin-3-ylamino}-pyrimidin-5-yl)-benzamide]
223 | Cc1cccc(C)c1C(=O)Nc1cnc(Nc2ccc(C(=O)N3CCN(C)CC3)cc2)nc1 [XV, 2,6-Dimethyl-N-{2-[4-(4-methyl-piperazine-1-carbonyl)-phenylamino]-pyrimidin-5-yl}-benzamide]
21 | CN1CCN(C(=O)c2ccc(Nc3ncc(NC(=O)c4cc(O)ccc4Cl)cn3)cc2)CC1 [XVI, 2-Chloro-5-hydroxy-N-{2-[4-(4-methyl-piperazine-1-carbonyl)-phenylamino]-pyrimidin-5-yl}-benzamide]
550 | Cc1c(O)cccc1C(=O)Nc1cnc(Nc2ccc(C(=O)N3CCN(C)CC3)cc2)nc1 [XVII, 2-Methyl-3-hydroxy-N-{2-[4-(4-methyl-piperazine-1-carbonyl)-phenylamino]-pyrimidin-5-yl}-benzamide]
20 | O=C(NCCN1CCCC1)c1csc(Nc2ncc(NC(=O)c3cc(O)ccc3Cl)cn2)n1 [XVIII, 2-[5-(2-Chloro-5-hydroxy-benzoylamino)-pyrimidin-2-ylamino]-thiazole-4-carboxylic acid (2-pyrrolidin-1-yl-ethyl)-amide]
19 | CC(C)N(CCO)C(=O)c1cccc(Nc2ncc(NC(=O)c3cc(O)ccc3Cl)cn2)c1 [XX, 2-Chloro-5-hydroxy-N-(2-{3-[(2-hydroxy-ethyl)-isopropyl-carbamoyl]-phenylamino}-pyrimidin-5-yl)-benzamide]
286 | CC(C)N(CCO)C(=O)c1ccc(Nc2ncc(NC(=O)c3c(Cl)cccc3Cl)cn2)cc1 [XXI, 2,6-Dichloro-N-(2-{4-[(2-hydroxy-ethyl)-isopropyl-carbamoyl]-phenylamino}-pyrimidin-5-yl)-benzamide]
43 | CC(C)N(CCO)C(=O)c1ccc(Nc2ncc(NC(=O)c3cc(O)ccc3Cl)cn2)cc1 [XXII, 2-Chloro-5-hydroxy-N-(2-{4-[(2-hydroxy-ethyl)-isopropyl-carbamoyl]-phenylamino}-pyrimidin-5-yl)-benzamide]
13 | O=C(NCCN1CCCC1)c1ccc(Nc2ncc(NC(=O)c3cc(O)ccc3Br)cn2)cc1 [XXIII, 2-Bromo-5-hydroxy-N-{2-[4-(2-pyrrolidin-1-yl-ethylcarbamoyl)-phenylamino]-pyrimidin-5-yl}-benzamide]
117 | Cc1cccc(C)c1C(=O)Nc1cnc(Nc2ccc(C(=O)NCCN3CCCC3)cc2)nc1 [XXIX, 2,6-Dimethyl-N-{2-[4-(2-pyrrolidin-1-yl-ethylcarbamoyl)-phenylamino]-pyrimidin-5-yl}-benzamide]
8.5 | O=C(NCCN1CCCC1)c1ccc(Nc2ncc(NC(=O)c3cc(O)ccc3Cl)cn2)cc1 [XXV, 2-Chloro-5-hydroxy-N-{2-[4-(2-pyrrolidin-1-yl-ethylcarbamoyl)-phenylamino]-pyrimidin-5-yl}-benzamide]
